Results: US20230200390A1, “SELECTIVE HERBICIDES BASED ON SUBSTITUTED ISOXAZOLIN CARBOXAMIDES AND MEFENPYR-DIETHYL” (BAYER AKTIENGESELLSCHAFT, priority 2020, published 2023)

Experiments:
Type in all cases: in vivo
[1] = system: spring barley, HORVS Montoya; assay: Tank-mix; post-emergence: crop damage by herbicide with/without safener mefenpyr-diethyl
Protocol: (§1) Seeds of crops (spring wheat, TRZAS; spring barley, HORVS; maize, ZEAMA) were placed in sandy loam soil in peat pots, covered with soil and cultivated in a greenhouse under good growth conditions. Two to three weeks after sowing, the test plants were treated at the 1 to 3-leaf stage. The herbicide/safener active compound combinations according to the invention, formulated as wettable powders or emulsion concentrates, and, in parallel tests, the correspondingly formulated individual active compounds were sprayed onto the green parts of the plants in various dosages using an amount of water of 300 l/ha (converted).
(§2) The pots were returned under good growing conditions in a glasshouse and a visual assessment of herbicidal effects was made at intervals from 1 to 3 weeks after herbicide application (DAT=days after treatment). Assessment was on a percentage basis in comparison with untreated control plants (0%=no injury, 100%=complete kill).

[2] = system: spring barley, HORVS Montoya; assay: Seed treatment with safener; post-emergence herbicide, crop damage; conditions: for HER effect + SAF / Reduction [%] / Reduction [Difference]: mefenpyr-diethyl 0.5 g a.i./kg seed
Description: (§3) For safener seed treatment trials, sufficient seed amounts of the respective crops (spring wheat (TRZAS); spring barley (HORVS)) were weighed into screw cap glass bottles with a minimum volume trice of the seeds.
(§4) As a first step, specified safeners formulated as wettable powder (WP) or wettable granules (WG) were weighed out for the required dosages (g a.i./kg seed), corresponding to the seed amounts. The safener amounts were mixed with a coloured slurry blind formulation type, prediluted with milk at 3.5% fat rate (25 mgs slurry formulation plus 2 ml milk per 10 grams of seed). A tube roller was used for coating. The solutions were gradually pipetted each on the rotating seeds followed by coating for min. 3 hours until all liquid had been soaked up by the seeds. Thereafter, the coated seeds were put flat on open trays for drying over night at room temperature.
(§5) Treated seeds were then placed into pots (7 cm diameter) on the surface of sandy loam, pressed down, flat covered with additional soil and finally covered with sandy soil, also pressed down, watered, and kept under good growth conditions in a greenhouse, until the plants had reached 2-leaf-stage (BBCH 12).
(§6) At that stage, post-emergence application of the specified herbicides was done on:
(§7) a) pot sets containing plants with safener-coated seeds as described above,
(§8) b) as a reference, pot sets of plants without seed treatment.
(§9) The herbicides were formulated as wettable powder (WP). Equivalent to the spray area, compound amounts were weighed out and diluted related to the water application rate (300 l/ha) to an aqueous suspension plus additive (1 l/ha MERO). Dosage related equivalents were conventionally sprayed on trays with the potted plants.
(§10) After application, the test plants were kept under good growth conditions in a greenhouse.
(§11) Assessment timings were 10 and 21 days after treatment (DAT) with the herbicide, by visual scoring of the crop damage in % (comparison of untreated with treated plants, either sprayed only with herbicide or with herbicide on plants with treated seeds).

[3] = system: spring wheat, TRZAS Triso; assay: as above; conditions: 21 DAT; for HER effect + SAF [%] (crop damage) / Reduction [%] / Reduction [Difference]: mefenpyr-diethyl 0.5 g a.i./kg seed; for HER effect [%] (crop damage, herbicide without safener): no safener
Description: as §3, §4, §5, §6, §7, §8, §9, §10, §11

[4] = system: spring wheat, TRZAS Triso; assay: Tank-mix; post-emergence: crop damage by herbicide with/without safener mefenpyr-diethyl; conditions: 21 DAT
Protocol: as §1, §2

[5] = HER 8 g a.i./ha + mefenpyr-diethyl 100 g a.i./ha, 21 DAT
[6] = HER 8 g a.i./ha post-emergence, 21 DAT
[7] = herbicide alone 8 g a.i./ha post-emergence, 21 DAT
[8] = HER 2 g a.i./ha + mefenpyr-diethyl 100 g a.i./ha, 21 DAT
[9] = HER 2 g a.i./ha + mefenpyr-diethyl 50 g a.i./ha
[10] = HER 8 g a.i./ha + mefenpyr-diethyl 50 g a.i./ha
[11] = HER 32 g a.i./ha post-emergence, 21 DAT
[12] = HER 8 g a.i./ha + mefenpyr-diethyl 50 g a.i./ha, 10 DAT
[13] = HER 32 g a.i./ha + mefenpyr-diethyl 100 g a.i./ha, 10 DAT
[14] = HER 32 g a.i./ha post-emergence, 10 DAT

Row | Structure (SMILES) | HER effect + SAF [2, 6] [%] | Reduction [%] [2, 6] [%] | Reduction [Difference] [2, 6] | HER effect [2, 7] [%] | HER effect + SAF [%] (crop damage) ([3]; HER dose 8 g a.i./ha) | Reduction [%] ([3]; HER dose 8 g a.i./ha) | Reduction [Difference] ([3]; HER dose 8 g a.i./ha) | HER effect [%] (crop damage, herbicide without safener) ([3]; HER dose 8 g a.i./ha) | HER effect + SAF [%] (crop damage) ([3]; HER dose 32 g a.i./ha) | Reduction [%] ([3]; HER dose 32 g a.i./ha) | Reduction [Difference] ([3]; HER dose 32 g a.i./ha) | HER effect [%] (crop damage, herbicide without safener) ([3]; HER dose 32 g a.i./ha) | HER effect + SAF [4, 9] [%] | Reduction [%] [4, 9] [%] | Reduction [Difference] [4, 9] | HER effect ([4]; herbicide alone 2 g a.i./ha) [%] | HER effect + SAF [%] (crop damage) ([3]; HER dose 2 g a.i./ha) | Reduction [%] ([3]; HER dose 2 g a.i./ha) | Reduction [Difference] ([3]; HER dose 2 g a.i./ha) | HER effect [%] (crop damage, herbicide without safener) ([3]; HER dose 2 g a.i./ha) | other results
1 | C=CC1(C(=O)NC2CC=C(C(=O)OC)C2)CC(c2cc(F)cc(F)c2)=NO1 (mixture of isomers) [Example 1.60] | 10 | 88 | 70 | 80 | 0 | 100 | 93 | 93 | 10 | 89 | 85 | 95 | – | – | – | – | – | – | – | – | HER effect + SAF [1, 5]: 20%; Reduction [%] [1, 5]: 75%; Reduction [Difference] [1, 5]: 60; HER effect ([1]; herbicide alone 8 g a.i./ha, 21 DAT): 80%
2 | C=CC1(C(=O)NC2C=CC(C(=O)OC)C2)CC(c2cc(F)cc(F)c2)=NO1 (stereo not drawn) [Example 1.26] | – | – | – | – | 70 | 25 | 23 | 93 | – | – | – | – | 50 | 44 | 40 | 90 | 30 | 67 | 60 | 90 | HER effect + SAF [1, 8]: 0%; Reduction [%] [1, 8]: 100%; Reduction [Difference] [1, 8]: 60; HER effect ([1]; herbicide alone 2 g a.i./ha, 21 DAT): 60%
3 | C=CC1(C(=O)NC2C=CC(C(=O)O)C2)CC(c2cc(F)cc(F)c2)=NO1 (stereo not drawn) [Example 1.58] | 0 | 100 | 95 | 95 | 0 | 100 | 93 | 93 | 10 | 89 | 83 | 93 | 10 | 88 | 75 | 85 | 0 | 100 | 85 | 85 | HER effect + SAF [4, 10]: 40%; Reduction [%] [4, 10]: 57%; Reduction [Difference] [4, 10]: 53; HER effect ([4]; herbicide alone 8 g a.i./ha): 93%; HER effect + SAF [2, 11]: 40%; Reduction [%] [2, 11]: 58%; Reduction [Difference] [2, 11]: 55; HER effect ([2]; herbicide alone 32 g a.i./ha post-emergence, 21 DAT): 95%
4 | C=CCOC(=O)C1CC(NC(=O)C2(C=C)CC(c3cc(C)cc(F)c3)=NO2)CO1 (mixture of isomers) [Example 1.85] | – | – | – | – | – | – | – | – | – | – | – | – | – | – | – | – | – | – | – | – | HER effect + SAF [1, 12]: 0%; Reduction [%] [1, 12]: 100%; Reduction [Difference] [1, 12]: 20; HER effect + SAF [1, 13]: 20%; Reduction [%] [1, 13]: 75%; Reduction [Difference] [1, 13]: 60; HER effect ([1]; herbicide alone 8 g a.i./ha, 10 DAT): 20%; HER effect ([1]; herbicide alone 32 g a.i./ha, 10 DAT): 80%; HER effect + SAF [2, 14]: 30%; Reduction [%] [2, 14]: 63%; Reduction [Difference] [2, 14]: 50; HER effect ([2]; herbicide alone 32 g a.i./ha post-emergence, 10 DAT): 80%
